In brackets after ≈: the same amount, converted by molar mass.
Key:
[1] = test system: S. aureus (52 isolates), methicillin-resistant; assay: MIC by agar dilution (MIC90); type: cell-based, Staphylococcus aureus; conditions: minimum inhibitory concentration required to inhibit 90% of the isolates
Excerpt: The in vitro activity of the compound of this invention can be assessed by standard testing procedures such as the determination of minimum inhibitory concentration (MIC) by agar dilution as described in “Approved Standard. Methods for Dilution Antimicrobial Susceptibility Tests for Bacteria That Grow Aerobically”, 3rd. ed., published 1993 by the National Committee for Clinical Laboratory Standards, Villanova, Pa., USA.

[2] = Loss during and following terminal moist heat sterilization in container; type: physicochemical; conditions: container-solution contact surface made of at least 50% polyolefin
Excerpt: When terminally moist heat sterilizing an IV solution, the solution is placed in the container in which (1) it will be stored and then transferred to the container from which it will ultimately be administered, or (2) stored and then ultimately administered from the same container to deliver the IV solution to the patient. […] What is essential is that the container-solution contact surface material be primarily a polyolefin; the remainder of the container can be made from polyolefin or other materials. It is preferred that the container-solution contact surface is made of from about 50 to about 100% polyolefin. It is more preferred that the container-solution contact surface is made of from about 70 to about 90% polyolefin. It is more preferred that the container-solution contact surface is made of from about 80% polyolefin. It is even more preferred that the container-solution contact surface is made of polyolefin.

Compound | MIC90 S. aureus (52 isolates), methicillin-resistant [1] [µg/mL] | loss of the compound during and following terminal moist heat sterilization [2] | melting point [°C]
CC(=O)NC[C@H]1CN(c2ccc(N3CCOCC3)c(F)c2)C(=O)O1 [linezolid, reference compound] | 4 (≈ 11.9 µM) | – | –
CC(=O)NC[C@H]1CN(c2cc(F)c(N3CCS(=O)(=O)CC3)c(F)c2)C(=O)O1 [The compound of formula I, N-({(5S)-3-[4-(1,1-dioxido-4-thiomorpholinyl)-3,5-difluorophenyl]-2-oxo-1,3-oxazolidin-5-yl}methyl)acetamide] | 2 | significantly much less loss | 187 to 189.5

— US6605609B2, “Thizaine oxazolidinone” (Pharmacia & Upjohn Company, priority 2000, dated 2003)
